Where only a bound is given, the exact number is not on record here.

This assay addresses human 11β-HSD1 (Homo sapiens, UniProt P28845). As to the kind of experiment: Inhibition of a microsomal preparation of 11β-HSD1, SPA (Biological Test Example 2). The format is biochemical. Set-up: expressed in transfected cells; host or cells: CHO cells (microsomes). The conditions noted are these: read-out: Biological Test Example 2 (IC50 class). The protocol: All reactions are carried out at room temperature in 96 well clear flexible PET Microbeta plates (PerkinElmer). […] After a 10 minute pre-incubation, 50 μL of enzyme solution containing microsomes isolated from CHO cells overexpressing human 11β-HSD1 (10-20 μg/ml of total protein) is added, and the plates are then incubated for 90 minutes at room temperature. The reaction is stopped by adding 50 μl of the SPA beads suspension containing […] 18β-glycyrrhetinic acid, 5 mg/ml protein A coated YSi SPA beads (GE Healthcare) and 3.3 μg/ml of anti-cortisol antibody (East Coast Biologics) in Superblock buffer (Bio-Rad). The plates are then shaken for 120 minutes at room temperature, and the SPA signal corresponding to [^3H]cortisol is measured on a Microbeta plate reader.

Sequence of human 11β-HSD1 (P28845 whole entry): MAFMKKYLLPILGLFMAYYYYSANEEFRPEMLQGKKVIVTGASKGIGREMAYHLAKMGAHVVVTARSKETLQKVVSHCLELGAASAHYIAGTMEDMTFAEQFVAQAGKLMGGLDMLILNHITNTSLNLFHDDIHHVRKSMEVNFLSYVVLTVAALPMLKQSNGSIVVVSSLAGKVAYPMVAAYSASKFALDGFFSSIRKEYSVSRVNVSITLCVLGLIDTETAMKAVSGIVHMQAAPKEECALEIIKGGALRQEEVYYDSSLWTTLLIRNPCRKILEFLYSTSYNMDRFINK

One may read the IC50 as the concentration that inhibits the measured activity by half. For the compound `O=C(O)CCC(=O)N1CC2(CCN(C(=O)NC3C4CC5CC(C4)CC3C5)CC2)c2ccccc21` (stereo not drawn) [Example 90, 4-(1′-(2-Adamantylcarbamoyl)spiro[indoline-3,4′-piperidine]-1-yl)-4-oxobutanoic acid], the IC50 is less than 0.05 µM.

For `O=C(O)/C=C/C(=O)N1Cc2ccccc2C2(CCN(C(=O)NC3C4CC5CC(C4)CC3C5)CC2)C1` (stereo not drawn) [Example 91, (E)-4-(1′-(2-Adamantylcarbamoyl)-1H-spiro[isoquinoline-4,4′-piperidine]-2(3H)-yl)-4-oxobut-2-enoic acid], the IC50 is less than 0.05 µM.

Regarding `O=C(O)CCC(=O)N1Cc2ccccc2C2(CCN(C(=O)NC3C4CC5CC(C4)CC3C5)CC2)C1` (stereo not drawn) [Example 92, 4-(1′-(2-Adamantylcarbamoyl)-1H-spiro[isoquinoline-4,4′-piperidine]-2(3H)-yl)-4-oxobutanoic acid], the IC50 is less than 0.05 µM.

On to `O=C(O)CCCC(=O)N1CC2(CCN(C(=O)NC3C4CC5CC(C4)CC3C5)CC2)c2ccccc21` (stereo not drawn) [Example 93, 5-(1′-(2-Adamantylcarbamoyl)spiro[indoline-3,4′-piperidine]-1-yl)-5-oxopentanoic acid], for which the IC50 was less than 0.05 µM.

As for `CC(C)(CC(=O)O)CC(=O)N1CC2(CCN(C(=O)NC3C4CC5CC(C4)CC3C5)CC2)c2ccccc21` (stereo not drawn) [Example 96, 5-(1′-(2-Adamantylcarbamoyl)spiro[indoline-3,4′-piperidine]-1-yl)-3,3-dim ethyl-5-oxopentanoic acid], the IC50 is less than 0.05 µM.

With `CC(C)(CC(=O)N1Cc2ccccc2C2(CCN(C(=O)NC3C4CC5CC(C4)CC3C5)CC2)C1)C(=O)O` (stereo not drawn) [Example 97, 4-(1′-(2-Adamantylcarbamoyl)-1H-spiro[isoquinoline-4,4′-piperidine]-2(3H)-yl)-2,2-dimethyl-4-oxobutanoic acid], the IC50 was less than 0.05 µM.

Turning to `CC(C)(CC(=O)O)CC(=O)N1Cc2ccccc2C2(CCN(C(=O)NC3C4CC5CC(C4)CC3C5)CC2)C1` (stereo not drawn) [Example 98, 5-(1′-(2-Adamantylcarbamoyl)-1H-spiro[isoquinoline-4,4′-piperidine]-2(3H)-yl)-3,3-dimethyl-5-oxopentanoic acid], the IC50 was in the range of 0.05 to 1 µM.

Turning to `O=C(O)C1CC1C(=O)N1Cc2ccccc2C2(CCN(C(=O)NC3C4CC5CC(C4)CC3C5)CC2)C1` [Example 99, (1S,2R)-2-(1′42-Adamantylcarbamoyl)-2,3-dihydro-1H-spiro[isoquinoline-4,4′-piperidine]-2-ylcarbonyl)cyclopropanecaxboxylic acid], the IC50 fell in the range of 0.05 to 1 µM.

As to `C=CCC1OC2(CCN(C(=O)NC3C4CC5CC(C4)CC3C5)CC2)c2c(Cl)cccc21` (stereo not drawn) [Example 102, 3-Allyl-7-chloro-N-(2-adamantyl)-3H-spiro[isobenzofuran-1,4′-piperidine]-1′-carboxamide], the IC50 was less than 0.05 µM.

As for `CN1C(C)(C)c2ccccc2C12CCN(C(=O)NC1C3CC4CC(C3)CC1C4)CC2` (stereo not drawn) [Example 103, N-(2-Adamantyl)-2,3,3-trimethylspiro[isoindoline-1,4′-piperidine]-1′-carboxamide], the IC50 is less than 0.05 µM.

For `CC1(C)NC2(CCN(C(=O)NC3C4CC5CC(C4)CC3C5)CC2)c2c(Cl)cccc21` (stereo not drawn) [Example 104, 7-Chloro-N-(2-adamantyl)-3,3-dimethylspiro[isoindoline-1,4′-piperidine]-1′-carboxamide], the concentration for half-maximal inhibition (IC50) is less than 0.05 µM.

Take `CN1C(C)(C)c2cccc(Cl)c2C12CCN(C(=O)NC1C3CC4CC(C3)CC1C4)CC2` (stereo not drawn) [Example 105, 7-Chloro-N-(2-adamantyl)-2,3,3-trimethylspiro[isoindoline-1,4′-piperidine]-1′-carboxamide]: the IC50 was less than 0.05 µM.

Regarding `COC(=O)CCS(=O)(=O)N1Cc2ccccc2C2(CCN(C(=O)NC3C4CC5CC(C4)CC3C5)CC2)C1` (stereo not drawn) [Example 106, Methyl 3-(1′-(2-adamantylcarbamoyl)-1-H-spiro[isoquinoline-4,4′-piperidine]-2(3H)-ylsulfonyl)propanoate], the IC50 is less than 0.05 µM.

`COC(=O)CCS(=O)(=O)N1Cc2ccccc2C2(CCN(C(=O)OC3C4CC5CC(C4)CC3C5)CC2)C1` (stereo not drawn) [Example 107, 2-Adamantyl 2-(3-methoxy-3-oxopropylsulfonyl)-2,3-dihydro-1H-spiro[isoquinoline-4,4′-piperidine]-1′-carboxylate]: the IC50 is less than 0.05 µM.

On to `O=C(O)CCS(=O)(=O)N1Cc2ccccc2C2(CCN(C(=O)NC3C4CC5CC(C4)CC3C5)CC2)C1` (stereo not drawn) [Example 108, 3-(1′-(2-Adamantylcarbamoyl)-1H-spiro[isoquinoline-4,4′-piperidine]-2(3H)-ylsulfonyl)propanoic acid], for which the IC50 is less than 0.05 µM.

`O=C(CC1CC2(CCN(C(=O)NC3C4CC5CC(C4)CC3C5)CC2)c2c(Br)cccc21)N1CCNCC1` (stereo not drawn) [Example 110, 7-Bromo-N-(2-adamantyl)-3-(2-oxo-2-(piperazin-1-yl)ethyl)-2,3-dihydrospiro[indene-1,4′-piperidine]-1′-carboxamide]: the half-maximal inhibitory concentration (IC50) is less than 0.05 µM.

Regarding `O=C(CC1CC2(CCN(C(=O)NC3C4CC5CC(C4)CC3C5)CC2)c2c(Br)cccc21)N1CCOCC1` (stereo not drawn) [Example 111, 7-Bromo-N-(2-adamantyl)-3-(2-morpholino-2-oxoethyl)-2,3-dihydrospiro[indene-1,4′-piperidine]-1′-carboxamide], the IC50 is less than 0.05 µM.

Take `CN1CCN(C(=O)CC2CC3(CCN(C(=O)NC4C5CC6CC(C5)CC4C6)CC3)c3c(Br)cccc32)CC1` (stereo not drawn) [Example 112, 7-Bromo-N-(2-adamantyl)-3-(2-(4-methylpiperazin-1-yl)-2-oxoethyl)-2,3-dihydrospiro[indene-1,4′-piperidine]-1′-carboxamide]: the IC50 is less than 0.05 µM.

`CN(C)CCCC(=O)N1Cc2ccccc2C2(CCN(C(=O)NC3C4CC5CC(C4)CC3C5)CC2)C1` (stereo not drawn) [Example 113, N-(2-Adamantyl)-2-(4-(dimethylamino)butanoyl)-2,3-dihydro-1H-spiro[isoquinoline-4,4′-piperidine]-1′-carboxamide]: the IC50 is less than 0.05 µM.

Turning to `CN(C)CCNC(=O)CC1CC2(CCN(C(=O)NC3C4CC5CC(C4)CC3C5)CC2)c2c(Br)cccc21` (stereo not drawn) [Example 114, 7-Bromo-N-(2-adamantyl)-3-(2-(2-(dimethylamino)ethylamino)-2-oxoethyl)-2,3-dihydrospiro[indene-1,4′-piperidine]-1′-carboxamide], the IC50 is less than 0.05 µM.

As to `CNCCN(C)C(=O)CC1CC2(CCN(C(=O)NC3C4CC5CC(C4)CC3C5)CC2)c2c(Br)cccc21` (stereo not drawn) [Example 115, 7-Bromo-N-(2-adamantyl)-3-(2-(methyl(2-(methylamino)ethyl)amino)-2-oxoethyl)-2,3-dihydrospiro[indene-1,4′-piperidine]-1′-carboxamide], the 50% inhibitory concentration (IC50) is less than 0.05 µM.

Take `CN(C)CCN(C)C(=O)CC1CC2(CCN(C(=O)NC3C4CC5CC(C4)CC3C5)CC2)c2c(Br)cccc21` (stereo not drawn) [Example 116]: the IC50 is less than 0.05 µM.

For `CN(C)CCCNC(=O)CC1CC2(CCN(C(=O)NC3C4CC5CC(C4)CC3C5)CC2)c2c(Br)cccc21` (stereo not drawn) [Example 117, 7-Bromo-N-(2-adamantyl)-3-(2-(3-(dimethylamino)propylamino)-2-oxoethyl)-2,3-dihydrospiro[indene-1,4′-piperidine]-1′-carboxamide], the IC50 was less than 0.05 µM.

Turning to `CN(C)CCCCNC(=O)CC1CC2(CCN(C(=O)NC3C4CC5CC(C4)CC3C5)CC2)c2c(Br)cccc21` (stereo not drawn) [Example 118, 7-Bromo-N-(2-adamantyl)-3-(2-(4-(dimethylamino)butylamino)-2-oxoethyl)-2,3-dihydrospiro[indene-1,4-r-piperidine]-1′-carboxamide], the IC50 is less than 0.05 µM.

On to `O=C(CC1CC2(CCN(C(=O)NC3C4CC5CC(C4)CC3C5)CC2)c2c(Br)cccc21)NCCN1CCNCC1` (stereo not drawn) [Example 119, 7-Bromo-N-(2-adamantyl)-3-(2-oxo-2-(2-(piperazin-1-yl)ethylamino)ethyl)-2,3-dihydrospiro[indene-1,4′-piperidine]-1′-carboxamide], for which the IC50 is less than 0.05 µM.

Regarding `O=C(CC1CC2(CCN(C(=O)NC3C4CC5CC(C4)CC3C5)CC2)c2c(Br)cccc21)NCCN1CCOCC1` (stereo not drawn) [Example 120, 7-Bromo-N-(2-adamantyl)-3-(2-(2-morpholinoethylamino)-2-oxoethyl)-2,3-dihydrospiro[indene-1,4′-piperidine]-1′-carboxamide], the IC50 was less than 0.05 µM.

As for `CN1CCN(CCNC(=O)CC2CC3(CCN(C(=O)NC4C5CC6CC(C5)CC4C6)CC3)c3c(Br)cccc32)CC1` (stereo not drawn) [Example 121, 7-Bromo-N-(2-adamantyl)-3-(2-(2-(4-methylpiperazin-1-yl)ethylamino)-2-oxoethyl)-2,3-dihydrospiro[indene-1,4′-piperidine]-1′-carboxamide], the IC50 was less than 0.05 µM.

The values are drawn from patent publication US8927715B2, “Inhibitors of 11β-hydroxysteroid dehydrogenase type 1” (Vitae Pharmaceuticals, Inc., priority 2006, dated 2015).
